The assay deals with T1, Swiss Cheese (SWS) (Drosophila melanogaster, UniProt Q9U969).
T1 construct: native full-length SWS in fly head homogenate, not purified; sws1 null mutant used as control
As to the kind of experiment: esterase activity in fly head homogenates. As to conditions: untreated flies; activity very low in sws1 null, raised to about 160% with SWS overexpression. The class given is biochemical.

The values below come from publication PMC3928115, “Organophosphate-Induced Changes in the PKA Regulatory Function of Swiss Cheese/NTE Lead to Behavioral Deficits and Neurodegeneration” (PLoS ONE, 2014).

T1 sequence (Q9U969 whole entry): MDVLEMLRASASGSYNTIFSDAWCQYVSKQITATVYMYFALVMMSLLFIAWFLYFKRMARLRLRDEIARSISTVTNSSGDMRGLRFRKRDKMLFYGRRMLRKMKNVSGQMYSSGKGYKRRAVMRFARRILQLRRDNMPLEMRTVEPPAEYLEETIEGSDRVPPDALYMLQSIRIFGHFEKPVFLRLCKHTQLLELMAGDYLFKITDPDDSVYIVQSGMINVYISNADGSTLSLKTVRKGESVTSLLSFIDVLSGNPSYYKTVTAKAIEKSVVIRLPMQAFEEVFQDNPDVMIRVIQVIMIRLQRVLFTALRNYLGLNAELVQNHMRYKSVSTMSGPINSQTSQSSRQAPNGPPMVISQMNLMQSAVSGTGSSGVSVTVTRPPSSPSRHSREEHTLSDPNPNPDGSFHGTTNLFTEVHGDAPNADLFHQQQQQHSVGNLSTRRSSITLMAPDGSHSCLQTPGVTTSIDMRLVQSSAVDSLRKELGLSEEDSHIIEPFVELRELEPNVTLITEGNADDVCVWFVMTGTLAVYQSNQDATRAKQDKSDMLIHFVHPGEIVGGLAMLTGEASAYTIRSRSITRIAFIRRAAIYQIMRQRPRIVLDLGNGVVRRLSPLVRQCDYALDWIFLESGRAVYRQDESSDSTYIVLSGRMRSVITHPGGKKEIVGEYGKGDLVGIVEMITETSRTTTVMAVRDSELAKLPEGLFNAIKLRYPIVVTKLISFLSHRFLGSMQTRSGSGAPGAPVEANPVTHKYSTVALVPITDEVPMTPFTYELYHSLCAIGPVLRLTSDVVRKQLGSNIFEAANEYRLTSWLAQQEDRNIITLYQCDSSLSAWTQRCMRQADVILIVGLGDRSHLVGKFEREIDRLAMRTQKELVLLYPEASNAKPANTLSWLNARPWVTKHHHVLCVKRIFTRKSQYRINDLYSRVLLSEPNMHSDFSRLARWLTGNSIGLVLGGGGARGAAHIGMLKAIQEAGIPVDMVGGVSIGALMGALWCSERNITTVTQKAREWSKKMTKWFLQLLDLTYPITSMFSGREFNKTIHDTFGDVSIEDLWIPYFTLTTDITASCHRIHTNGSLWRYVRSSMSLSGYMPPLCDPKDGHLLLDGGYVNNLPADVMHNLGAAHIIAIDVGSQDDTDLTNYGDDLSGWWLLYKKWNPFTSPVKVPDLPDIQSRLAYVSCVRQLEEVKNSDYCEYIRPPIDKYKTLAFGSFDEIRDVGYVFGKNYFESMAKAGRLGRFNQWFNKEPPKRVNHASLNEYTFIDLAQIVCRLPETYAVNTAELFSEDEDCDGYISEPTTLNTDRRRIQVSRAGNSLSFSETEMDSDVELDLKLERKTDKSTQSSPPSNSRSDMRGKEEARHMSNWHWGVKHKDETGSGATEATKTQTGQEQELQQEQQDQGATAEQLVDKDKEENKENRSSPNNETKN

For `CCCCC(=O)Oc1ccccc1` [phenyl valerate], the “esterase activity in fly head homogenates” value is recorded as “hydrolyzing activity against phenyl valerate, a standard substrate to detect NTE activity”.
